# Test results as given in PMC6694100, “The complex of ferric-enterobactin with its transporter from Pseudomonas aeruginosa suggests a two-site model” (Nature Communications, 2019).
# Several values for one entry are separate records, joined by “and”; a condition that tells them apart may be missing. Equal values may be shown once.
# How the values were obtained:
# [1] = system: ∆pfeA(pMMBpfeA) cells (native PfeA); assay: 55Fe-enterobactin binding and uptake assay, ∆pfeA(pMMBpfeA); assay type: cell-based, Pseudomonas aeruginosa; conditions: cells not treated with CCCP, 500 nM ^55Fe-enterobactin, 30 min
# Protocol: (§1) Fig. 6 Effects of PfeA mutation in vivo. a Analysis of changes in the transcription of pfeA gene. PAO1 strain, its corresponding deletion mutant ∆pfeA and deletion mutants carrying the expression plasmid of PfeA wild-type (∆pfeA(pMMBpfeA) or the R480A-Q482A mutant (∆pfeA(pMMBpfeAR480AQ482A)) were grown in CAA medium supplemented with 10 µM enterobactin. The data were normalised relative to the reference gene uvrD, and are representative of three independent experiments performed in triplicate (n = 3). The results are given as a ratio between the values obtained for ∆pfeA, ∆pfeA(pMMBpfeA) and ∆pfeA(pMMBpfeAR480AQ482A) over those obtained for the PAO1 strain. b ^55Fe-enterobactin binding at the bacterial surface. Cells were grown as in panel a, and were incubated for 15 min with 200 µM CCCP before initiation of transport assays by the addition of 500 nM ^55Fe-enterobactin. After 30 min incubation, the radioactivity accumulated in the bacteria was counted. The results are expressed as pmol of ^55Fe-enterobactin bound per ml of cells at an OD600 of 1. The experiments have been repeated three times. c ^55Fe-enterobactin binding and uptake. Cells were grown as in panel a, and were incubated with or without 200 µM CCCP before initiation of transport assays by the addition of 500 nM ^55Fe-enterobactin. After 30 min incubations, the radioactivity accumulated in the bacteria was counted. The results are expressed as pmol of ^55Fe-enterobactin bound and transported per ml of cells at an OD600 of 1. The experiments have been repeated three times
# (§2) The complex was prepared at ^55Fe concentrations of 50 μM, with a siderophore:iron (mol:mol) ratio of 20:1. P. aeruginosa strains were first grown overnight at 30 °C in LB broth, and were then washed, resuspended and cultured overnight at 30 °C in iron-deficient CAA medium (casamino acid medium, composition: 5 g.l^−1 low-iron CAA (Difco), 1.46 g.l^−1 K2HPO4 3H2O, 0.25 g.l^−1 MgSO4 7H2O) and in the presence of 10 µM enterobactin to induce the expression of PfeA. CAA is a highly iron-restricted medium with iron concentrations of 20 nM[59]. Afterwards bacteria were washed with 50 mM Tris-HCl pH 8.0, and diluted to an OD600 of 1. Cells solutions were divided in two, one batch being treated with 200 μM CCCP. This compound collapses the proton-motive force across the bacterial cell membranes, inhibiting TonB-dependent iron uptake. Binding and transport assays were initiated by adding 500 nM ^55Fe-enterobactin to the bacterial solutions treated or not with CCCP. After 30 min of incubations, cells were centrifuged, and the radioactivity associated to the bacteria was monitored in the cell pellets. For the cells treated with CCCP, the radioactivity in the cell pellets corresponds to the binding of ^55Fe-enterobactin to P. aeruginosa cell surface, since no uptake occurs. In the absence of CCCP, the radioactivity associated to the cells corresponds to ^55Fe-enterobactin binding to the cell surface and the uptake into the bacteria.
# [2] = system: pfeA gene; assay: RT-qPCR of pfeA gene transcription in strains grown with 10 µM enterobactin; assay type: cell-based, Pseudomonas aeruginosa; conditions: replicate values, Figure 6a
# Protocol: Fig. 6 Effects of PfeA mutation in vivo. a Analysis of changes in the transcription of pfeA gene. PAO1 strain, its corresponding deletion mutant ∆pfeA and deletion mutants carrying the expression plasmid of PfeA wild-type (∆pfeA(pMMBpfeA) or the R480A-Q482A mutant (∆pfeA(pMMBpfeAR480AQ482A)) were grown in CAA medium supplemented with 10 µM enterobactin. The data were normalised relative to the reference gene uvrD, and are representative of three independent experiments performed in triplicate (n = 3). The results are given as a ratio between the values obtained for ∆pfeA, ∆pfeA(pMMBpfeA) and ∆pfeA(pMMBpfeAR480AQ482A) over those obtained for the PAO1 strain. b ^55Fe-enterobactin binding at the bacterial surface. Cells were grown as in panel a, and were incubated for 15 min with 200 µM CCCP before initiation of transport assays by the addition of 500 nM ^55Fe-enterobactin. After 30 min incubation, the radioactivity accumulated in the bacteria was counted. The results are expressed as pmol of ^55Fe-enterobactin bound per ml of cells at an OD600 of 1. The experiments have been repeated three times. c ^55Fe-enterobactin binding and uptake. Cells were grown as in panel a, and were incubated with or without 200 µM CCCP before initiation of transport assays by the addition of 500 nM ^55Fe-enterobactin. After 30 min incubations, the radioactivity accumulated in the bacteria was counted. The results are expressed as pmol of ^55Fe-enterobactin bound and transported per ml of cells at an OD600 of 1. The experiments have been repeated three times […]
# Specific pfeA gene transcription was measured by reverse transcription-quantitative PCR (RT-qPCR) from 16 h cultures in CAA medium as described in Supplementary Methods. […]
# The supernatant […]
# was discarded, and inner membrane proteins were solubilized in lysis buffer with 1% (w/v) N-lauroylsarkosine (Sigma-Aldrich). […]
# Quantitative real-time PCR. […] The amounts of specific cDNA were assessed in a StepOne Plus instrument (Applied Biosystems) by using a Power Sybr Green PCR Master Mix […]
# [3] = system: ∆pfeA(pMMBpfeAR480AQ482A) cells (double-mutant PfeA); assay: 55Fe-enterobactin binding and uptake assay, ∆pfeA(pMMBpfeAR480AQ482A); assay type: cell-based, Pseudomonas aeruginosa; conditions: 500 nM ^55Fe-enterobactin, 30 min
# Protocol: as §1, §2
# [4] = set-up: method as in doi:10.1021/ja00514a037, PMID 12453412; conditions: cited from earlier work
compound,measurement,setting,value
"O=C(N[C@H]1COC(=O)[C@@H](NC(=O)c2cccc(O)c2O)COC(=O)[C@@H](NC(=O)c2cccc(O)c2O)COC1=O)c1cccc(O)c1O [Enterobactin, enterobactin]",^55Fe-enterobactin binding and uptake,[1],actively taken up
same,pfeA gene transcription (RT-qPCR),[2]; strain ΔpfeA (pMMBpfeA R480AQ482A),105.534 and 104.018 and 99.7495 and 101.79 and 78.5683 and 111.303 and 100.693 and 97.5736 and 107.445
same,pfeA gene transcription (RT-qPCR),[2]; strain ΔpfeA (pMMBpfeA),181.293 and 171.592 and 180.688 and 175.586 and 141.721 and 155.679 and 152.232 and 181.628 and 183.778
same,pfeA gene transcription (RT-qPCR),[2]; strain ΔpfeA,0.006806 and 0.03712 and 0.02449 and 0.03211 and 0.01571 and 0.01618 and 0.0116 and 0.02148 and 0.01134
same,^55Fe-enterobactin binding at the bacterial surface,[3]; CCCP treated cells (200 µM),does not bind
same,^55Fe-enterobactin binding and uptake,[3]; cells not treated with CCCP,not competent for the uptake
same,stability when not bound to iron,[4],easily degraded
